Results published in PubChem BioAssay AID256 (DTP/NCI, 2004).
Inconclusive results and toxic doses are left out. How the source made its calls: active means survival T/C of 150% or more; inactive means T/C below 125% in these data.

System: CD2F1 mice, L1210 leukemia ip, survival T/C
Test: NCI In Vivo Anticancer Drug Screen. Data for tumor model L1210 Leukemia (intraperitoneal) in CD2F1 (CDF1) mice
Details: higher = longer survival
In short: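 Ratio T/C, where T is the treated-group value and C the vehicle-dosed control value, from mice implanted with a transplantable tumor.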

[1] = endpoint: mean survival time, dose: 100.0 mg/kg/injection, schedule: Q01DX009 (ip), vehicle: saline with Tween-80
[2] = endpoint: mean survival time, dose: 200.0 mg/kg/injection, schedule: Q01DX009 (ip), vehicle: saline with Tween-80
[3] = endpoint: mean survival time, dose: 400.0 mg/kg/injection, schedule: Q01DX009 (ip), vehicle: saline with Tween-80

Measured: T/C

CCOC(=O)N1CC2CCC(C1)N2C
inactive: endpoint: mean survival time, dose: 100.0 mg/kg/injection, schedule: Q04DX003 (ip), vehicle: saline 93 % of control

O=C(O)C1CCCCC1C(=O)O.[NH-]C1CCC1.[NH2-].[Pt+2] (centres undefined)
inactive: endpoint: median survival time, dose: 3.12 mg/kg/injection, schedule: Q04DX003 (ip), vehicle: distilled water + Tween-80 107 % of control | endpoint: median survival time, dose: 6.25 mg/kg/injection, schedule: Q04DX003 (ip), vehicle: distilled water + Tween-80 102 % of control | endpoint: median survival time, dose: 12.5 mg/kg/injection, schedule: Q04DX003 (ip), vehicle: distilled water + Tween-80 106 % of control | endpoint: median survival time, dose: 25.0 mg/kg/injection, schedule: Q04DX003 (ip), vehicle: distilled water + Tween-80 102 % of control | endpoint: median survival time, dose: 50.0 mg/kg/injection, schedule: Q04DX003 (ip), vehicle: distilled water + Tween-80 103 % of control

BrCC[n+]1ccc(-c2cc[n+](CCBr)cc2)cc1
inactive: endpoint: mean survival time, dose: 10.0 mg/kg/injection, schedule: Q01DX001 (ip), vehicle: Klucel (hydroxypropylcellulose) (HPC) 110 % of control | endpoint: mean survival time, dose: 20.0 mg/kg/injection, schedule: Q01DX001 (ip), vehicle: Klucel (hydroxypropylcellulose) (HPC) 93 % of control | endpoint: mean survival time, dose: 40.0 mg/kg/injection, schedule: Q01DX001 (ip), vehicle: Klucel (hydroxypropylcellulose) (HPC) 98 % of control

O=C(O)C(=O)O.O=N[O-].O=N[O-].[Co+2].[NH2-].[NH2-]
inactive: endpoint: mean survival time, dose: 25.0 mg/kg/injection, schedule: Q04DX002 (ip), vehicle: saline with Tween-80 93 % of control | endpoint: mean survival time, dose: 50.0 mg/kg/injection, schedule: Q04DX002 (ip), vehicle: saline with Tween-80 117 % of control | endpoint: mean survival time, dose: 100.0 mg/kg/injection, schedule: Q04DX002 (ip), vehicle: saline with Tween-80 98 % of control

CC12CCC(=O)C=C1CCC1C2CCC2(C)C(C(=O)Cn3c(=O)cc[nH]c3=O)CCC12 (centres undefined)
inactive: endpoint: mean survival time, dose: 12.5 mg/kg/injection, schedule: Q04DX003 (ip), vehicle: Klucel (hydroxypropylcellulose) (HPC) 91 % of control | endpoint: mean survival time, dose: 25.0 mg/kg/injection, schedule: Q04DX003 (ip), vehicle: Klucel (hydroxypropylcellulose) (HPC) 97 % of control | endpoint: mean survival time, dose: 50.0 mg/kg/injection, schedule: Q04DX003 (ip), vehicle: Klucel (hydroxypropylcellulose) (HPC) 91 % of control | endpoint: mean survival time, dose: 100.0 mg/kg/injection, schedule: Q04DX003 (ip), vehicle: Klucel (hydroxypropylcellulose) (HPC) 95 % of control | endpoint: mean survival time, dose: 200.0 mg/kg/injection, schedule: Q04DX003 (ip), vehicle: Klucel (hydroxypropylcellulose) (HPC) 103 % of control

Cc1cccc2c1-c1c(C)cccc1CSC2
inactive: [1] 95 % of control | endpoint: mean survival time, dose: 100.0 mg/kg/injection, schedule: Q04DX003 (ip), vehicle: saline sonified 98 % of control | [2] 97 % of control | endpoint: mean survival time, dose: 200.0 mg/kg/injection, schedule: Q04DX003 (ip), vehicle: saline sonified 93 % of control | [3] 101 % of control | endpoint: mean survival time, dose: 400.0 mg/kg/injection, schedule: Q04DX003 (ip), vehicle: saline sonified 93 % of control

c1ccc(C2=NNC(c3ccccn3)=NN2)nc1
inactive: [1] 95 % of control | endpoint: mean survival time, dose: 100.0 mg/kg/injection, schedule: Q04DX003 (ip), vehicle: saline with Tween-80 97 % of control | [2] 101 % of control | endpoint: mean survival time, dose: 200.0 mg/kg/injection, schedule: Q04DX003 (ip), vehicle: saline with Tween-80 92 % of control | [3] 97 % of control | endpoint: mean survival time, dose: 400.0 mg/kg/injection, schedule: Q04DX003 (ip), vehicle: saline with Tween-80 101 % of control
